Legend:
CLP mice [1] = assay: Histological analysis (hematoxylin and eosin) of major internal organs of CLP mice; assay type: in vivo, mouse; settings: FIG. 7
Procedure: A mouse was subjected to CLP surgery, and after 2 hours, PBS or Ac-PGP was injected at a dose of 17.5 mg/kg to the mouse. After the CLP surgery, the mouse was sacrificed within 24 hours, and the lung of the mouse was fixed, microtomed, and stained with hematoxylin and eosin so as to perform morphological analysis.
(§1) The defunctionalization of the major internal organs such as lungs was associated with the mortality after sepsis. A morphological change was observed by performing hematoxylin and eosin staining. […] Liver tissues from the CLP mice were necrotized to a higher extent, but the necrosis of the liver tissues was decreased by administration of Ac-PGP. […] Most of the apoptosis in the thymus or spleen of a CLP mouse was caused in the cortex of the thymus or spleen in which immature cells were populated. When compared with those of the sham or Ac-PGP mice, an important morphological change in apoptotic cells of the CLP mice is that small compact pyknosis containing multiple nuclear fragments were present in apoptotic lymphocytes (FIG. 7). […] The apoptosis of immune cells was also accompanied with sepsis.

CLP mice [2] = assay: Survival of CLP sepsis mice; assay type: in vivo, mouse
Procedure: (§2) Male WT ICR mice were used to evaluate a therapeutic effect of Ac-PGP. IFN-γ-deficient mice (kindly provided by Y. K. Kim at the Pohang University of Science and Technology, Pohang, Republic of Korea) were used for mechanism study. All Examples in which animals were used were performed according to the instructions with permission of the Institutional Review Board (IRB) for the care and management of laboratory animals at Dong-A University. In the case of the CLP, mice were anesthetized with pentothal sodium (50 mg/kg, intraperitoneally injected), and abdomen of each mouse was cut along a central cutting line to expose an appendix. Then, an ileocecal valve of the appendix was tied up, both surfaces of the ileocecal valve were punctured twice with a 22-gauge needle (or punctured once to measure a production amount of cytokines), and the abdomen was sutured. Sham CLP mice were treated in the same manner as described above, except that CLP of the appendix was not performed. A survival rate of the mice was monitored every day for 10 days. In the case of the LPS or E. coli model, E. coli and LPS were intraperitoneally injected at concentrations of 1×10^9 cells/mouse and 60 mg/kg, respectively. A survival rate of the mice was monitored once a day for 10 days.
An experimental therapeutic effect of Ac-PGP on sepsis was examined in CLP using albino Institute of Cancer Research (ICR) mice. Survival of the mice was monitored for 10 days after CLP. On the second day after the CLP, only 20% of untreated WT mice survived (FIG. 1).
The Ac-PGP was evaluated to determine whether the antiseptic activity of Ac-PGP served through CXCR2 that was a known receptor of Ac-PGP.

[3] = system: mice into which LPS was intraperitoneally injected; assay: Survival in LPS-induced sepsis model; assay type: in vivo, mouse; settings: 60 mg/kg LPS intraperitoneally; FIG. 4
Procedure: as §2
In another mouse model of sepsis, a therapeutic effect of Ac-PGP was also evaluated.

CLP mice [4] = assay: Apoptosis of immune cells (TUNEL) in CLP mice; assay type: in vivo, mouse
Procedure: First, a tissue embedded in paraffin was deparaffinized using a typical histological protocol, and performed digoxigenin-dUTP nick end labeling (TUNEL) analysis. Sections were permeated into the Triton X-100 at 4° C. for 2 minutes, and the sections were flooded in terminal deoxynucleotidyl transferase (TdT) and a TUNEL reagent at 37° C. for 60 minutes. A percentage of apoptotic cells (TUNEL-positive cells) was determined by counting 500 splenocytes under an optical microscope. Also, the tissue embedded in paraffin was deparaffinized using a typical histological protocol, and immunohistochemical analysis was performed on the microtomed sections of caspase-3 (Wang J. et al. 2001 Proc. Natl. Acad. Sci. USA 98:4038-43).
as §1
The apoptosis of immune cells is associated with the mortality on sepsis. Here, the CLP was proven to remarkably increase apoptosis of splenocytes (FIG. 22). […] Apoptosis of lymphocytes was induced by activation of some major caspases including caspase-3. Therefore, not only the effect of Ac-PGP on activation of caspase-3 but also the effect of CLP activation by caspase-3 were examined (FIG. 23).

mouse splenocytes = assay: Cytokine release from LPS-stimulated mouse splenocytes (ELISA); assay type: cell-based
Procedure: Mouse splenocytes were positioned on an RPMI 1640 medium including 5% FBS in a 96-well plate, and maintained at 37° C. in a 5% CO2 incubator. Thereafter, the splenocytes were stationarily incubated with LPS (100 ng/ml) for 24 hours in the presence or absence of Ac-PGP. After 30 minutes, LPS was added to the cells and collected a cell-free supernatant, and then the supernatant was centrifuged, and TNF-α, IL-6 and IFN-γ were measured using ELISA (BD Biosciences Pharmingen). In regards to the effect of IFN-γ on production of pro-inflammatory cytokines induced by LPS, 5×10^5 cells/ml of the mouse splenocytes were stimulated with 100 ng/ml of LPS in the presence or absence IFN-γ (R&D) (at various concentrations of 1, 10, 100 and 1,000 IU/ml). Amounts of TNF-α and IL-6 were measured 20 hours after stationary incubation using ELISA (BD Biosciences Pharmingen).
An effect of the Ac-PGP on a pro-inflammatory cytokine in a peritoneal fluid by CLP was determined from 4 to 72 hours after the CLP. The CLP induced a remarkable increase in levels of pro-inflammatory cytokines (TNF-α, IL-1β and IL-6) within 24 hours (FIGS. 14 to 16). Injection of the Ac-PGP in a sepsis model by the CLP induced a remarkable change in levels of the cytokines. […] To evaluate an effect of the Ac-PGP on production of the pro-inflammatory cytokines by the LPS, in vitro production of TNF-α and IL-6 by the mouse splenocytes was evaluated. Direct release of the TNF-α and IL-6 from the mouse splenocytes by the LPS was suppressed by in vitro treatment with the Ac-PGP (FIGS. 17 and 18).
Since it was confirmed that the administration of the Ac-PGP improved in vivo production of IFN-γ, a direct effect of the Ac-PGP on production of IFN-γ by splenocytes was examined. […] Also, an effect of IFN-γ on production of the pro-inflammatory cytokines was also examined.

## acetylated-Pro-Gly-Pro [Ac-PGP]
CLP mice [1]; 17.5 mg/kg 2 hours after CLP
  necrosis of the liver tissues: decreased
CLP mice [1]
  formation of alveolar congestion and thrombotic lesions in the lungs: remarkably suppressed
CLP mice [2]; 17.5 mg/kg injected 3 or 4 times from 2 hours after CLP at an interval of 12 hours, FIG. 2
  survival rate: highly increased
CLP mice [2]; CLP mice pretreated with CXCR2-selective antagonist SB225002, FIG. 5
  survival rate: could not improve the survival rate
CLP mice [2]; CXCR2-deficient sepsis mice, FIG. 6
  survival rate: could not improve a survival rate
CLP mice [2]; administered 4 to 5 times at 17.5 mg/kg
  survival rate: highest increase in survival rate
CLP mice [2]; injected 10 hours after the CLP, FIG. 3
  therapeutic effect (survival): a therapeutic effect was still exhibited
CLP mice [2]; injection of 7.5, 12.5 or 17.5 mg/kg, compared with PBS-injected control, FIG. 1
  survival of the mice: remarkably increased survival of the mice
CLP mice [2]; subcutaneous administration 2 hours after CLP, various doses, monitored 10 days, FIG. 1
  survival rate: remarkably increased the survival rate in a dose-dependent manner
[3]
  mortality: decreased mortality
CLP mice [4]; CLP mice, FIG. 8
  apoptosis of the immune cells in the spleen: remarkably suppressed
CLP mice [4]; CLP mice, FIG. 9
  apoptosis of the immune cells in the thymus: remarkably suppressed
CLP mice [4]; CLP mice, FIG. 22
  apoptosis of splenocytes: remarkably suppressed the apoptosis of splenocytes
CLP mice [4]; IFN-γ-deficient CLP mice, FIG. 22
  inhibitory effect of the apoptosis of splenocytes by Ac-PGP: remarkably relieved
Mouse splenocytes; LPS 100 ng/ml, 24 hours, FIG. 17
  release of TNF-α by LPS: suppressed
Mouse splenocytes; LPS 100 ng/ml, 24 hours, FIG. 18
  release of IL-6 by LPS: suppressed
Mouse splenocytes; LPS-stimulated splenocytes, FIG. 24
  production of IFN-γ by LPS: increased production of IFN-γ
